Laboratory results taken from patent publication US20160102052A1, “Use of Cysteamine in Treating Infections caused by Yeasts/Moulds” (priority 2014, published 2016).
Where two headings read alike, the source gives them in different places.

Test system: Exophiala dermatitidis CA01
Assay: Broth microdilution chequerboard analysis of Lynovex (NM001) in combination with clinical antifungals
Format: cell-based
Settings: for MIC: Exophiala dermatitidis, CA01, 72 h, antifungal in isolation, read-out: Antifungal MIC100; for MIC / Antifungal MIC100 in Combination: 72 h; for MIC / Antifungal MIC100 in Combination / Antifungal MIC50 in Combination: 35° C.; for FICI: antifungal with Lynovex (NM001), <0.5 Synergy, 0.5-1 Additive, >1 Indifference; for Antifungal MIC100 in Combination / Antifungal MIC50 in Combination: in combination with Lynovex (NM001)
Protocol: The aim of the experiment was to determine the effect of Lynovex (NM001) on the antifungal drug susceptibility of Exophiala dermatitidis CA01. Microtitre plates were prepared following CLSI recommendations for broth microdilution chequerboard method. These plates contained a serial doubling dilution of Lynovex (NM001) combined with serial doubling dilutions of antifungals drugs; Fluconazole, Itraconazole, Caspofungin and Amphotericin B. […] These were incubated at 35° C. and read at 72 h, 96 h, 120 h and 144 h on the BioTek plate reader. […] Three independent E. dermatitidis CA01 cultures were grown on PDA slope for 6 days at 35° C. • 7. Cultures were removed from incubator. 2 ml sterile 0.15M NaCl added to the overnight culture and cells harvested from the surface of the agar. Cells placed in fresh bijou tube. • 8. The cultures were allowed to rest for up to 10 minutes, allowing any hyphae to settle to the bottom. The top layer of conidia was removed into fresh bijou. Hyphae were discarded. • 9. […] This is continued to F12 where 100 μl is removed and discarded. • f. This dilution series was repeated in rows G-H for the remaining 2 cultures • g. Plate read at OD530 on BioTek • h. […] This preparation step occurs in two parts. First, Lynovex (NM001) and antifungals are serially diluted, down and across microtitre plates, respectively. Equal volumes of Lynovex and antifungal are then combined in a fresh microtitre plate, prior to inoculation. […] Stock solutions of Lynovex and antifungals were prepared at 4× desired concentrations. The plate layout at the end of this protocol is the final concentration in the plate following the combination of Lynovex and antifungals and the addition of the inocula. […] All other wells contain 150 μl sterile dH2O. • 9. Serial doubling dilutions are carried out from A to B whereby 150 μl is removed from A and placed into B and mixed well. Then take 150 μl B and place in C and mix well. This is repeated down to row G where the final 150 μl is discarded. […] The same procedure is repeated for the other 4 antifungals, carrying the dilutions across the plate i.e. […] At the final dilution in column 10, the final 150 μl is discarded. […] Inoculating Plates with E. dermatitidis CA01 • 6. Add 100 μl (total volume 200 μl) of the prepared E. dermatitidis CA01 culture to the all wells on the plate except wells H12. […] H12 will contain 100 μl water and 100 μl 2×RPMI-1640 alone, constituting an uninoculated control. • 8. The plate is read in the BioTek at OD530. • 9. Plates are then placed in a plastic box containing a Petri dish of water, sealed and incubated at 35° C. The presence of the water in the dish or on the tissue provides and environment of relatively high humidity. • 10. OD530 is then read at 72 h, 96 h, 120 h and 144 h and raw data processed using Microsoft Excel. • 11. Fractional Inhibitory Concentration (FIC) Index values are generated using MIC100 for 72 h data and MIC50 for later time points using the following formula: […]

## CC[C@H](C)C[C@H](C)CCCCCCCCC(=O)N[C@H]1C[C@@H](O)[C@@H](NCCN)NC(=O)[C@@H]2[C@@H](O)CCN2C(=O)[C@H]([C@H](O)CCN)NC(=O)[C@H]([C@H](O)[C@@H](O)c2ccc(O)cc2)NC(=O)[C@@H]2C[C@@H](O)CN2C(=O)[C@H]([C@@H](C)O)NC1=O [Caspofungin]
GEOMEAN
  MIC: 25 µg/mL
  Antifungal MIC100 in Combination: 2.0 µg/mL
MEAN
  MIC: 26 µg/mL
  Antifungal MIC100 in Combination: 2.0 µg/mL
Range
  MIC: 15.6 to 31.2 µg/mL
  Antifungal MIC100 in Combination: 2.0 µg/mL
GEOMEAN, MIC50, 96 h
  FICI: 0.48 (4)
GEOMEAN, MIC50, 120 h
  FICI: 0.24 (4)
GEOMEAN, MIC50, 144 h
  FICI: 0.41 (3)
GEOMEAN, MIC100, 72 h
  FICI: 0.25 (1)
GEOMEAN, 96 h
  Antifungal MIC50 in Combination: 11.84 µg/mL
GEOMEAN, 120 h
  Antifungal MIC50 in Combination: 1.95 µg/mL
GEOMEAN, 144 h
  Antifungal MIC50 in Combination: 3.91 µg/mL
MEAN, MIC50, 96 h
  FICI: 0.58 (4)
MEAN, MIC50, 120 h
  FICI: 0.27 (4)
MEAN, MIC50, 144 h
  FICI: 0.52 (3)
MEAN, MIC100, 72 h
  FICI: 0.25 (1)
MEAN, 96 h
  Antifungal MIC50 in Combination: 14.84 µg/mL
MEAN, 120 h
  Antifungal MIC50 in Combination: 4.20 µg/mL
MEAN, 144 h
  Antifungal MIC50 in Combination: 6.51 µg/mL
Range, 96 h
  Antifungal MIC50 in Combination: 3.91 to 31.25 µg/mL
Range, 120 h
  Antifungal MIC50 in Combination: 0.49 to 15.625 µg/mL
Range, 144 h
  Antifungal MIC50 in Combination: 0.23 µg/mL
